Experiment [1] deals with T1, purified mutant MGL (mut-MGLL 11-313 L179S L186S) (Homo sapiens, UniProt Q99685, L169S/L176S).
T1 construct: purified mutant MGL (mut-MGLL 11-313 L179S L186S)
T1 sequence (Q99685 1-303 L169S/L176S): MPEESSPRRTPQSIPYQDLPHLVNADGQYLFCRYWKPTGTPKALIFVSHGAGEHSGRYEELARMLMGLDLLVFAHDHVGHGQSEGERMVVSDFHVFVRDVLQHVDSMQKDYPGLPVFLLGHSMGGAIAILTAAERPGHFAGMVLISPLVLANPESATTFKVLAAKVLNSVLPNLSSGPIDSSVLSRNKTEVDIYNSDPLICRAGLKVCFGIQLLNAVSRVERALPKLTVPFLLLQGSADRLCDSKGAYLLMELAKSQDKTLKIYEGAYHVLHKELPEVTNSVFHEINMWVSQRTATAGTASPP
Description: MGL enzyme activity assay (4MU-B cleavage), mutant MGL. It is filed as biochemical. The settings on record: mutant MGL 5 nM, 4MU-B 10 μM, 37° C.; read-out: MGL mutant inh IC50. An outline of the steps:
(§1)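 Enzyme in 20 mM PIPES pH 7.0, 150 mM NaCl, 0.001% Tween 20 with 4MU-B at 10 μM final and MGL at 5 nM final; compounds 17 to 0.0003 μM final, enzyme added last. Fluorescence (ex 335/em 440 nm) followed at 37° C for 5 min; IC50 from fit of fractional activity versus inhibitor concentration.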

Experiment [2] relates to MGL (rat brain homogenate). Briefly: 2-AG accumulation assay in rat brain homogenate. It is filed as biochemical. The settings on record: compound 1 μM, percent of vehicle 2-AG accumulation. In outline: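 Rat brain homogenate was incubated with compound for 15 min at 37° C., after which CaCl2 was added to a final concentration of 10 mM and incubation continued for 15 min at 37° C. in 5 mL total. Reactions were stopped with 6 mL of 2:1 chloroform/methanol, and 2-AG accumulated in the organic phase was quantified by HPLC/MS.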

For experiment [3], the target named is T2, purified wild type MGL (wt-MGLL 6H-11-313) (Homo sapiens, UniProt Q99685).
T2 construct: purified wild type MGL (wt-MGLL 6H-11-313)
T2 sequence (Q99685 1-303): T1 sequence (Q99685 1-303 L169S/L176S) with S169L, S176L
Briefly: MGL enzyme activity assay (4MU-B cleavage), wild type MGL. It is filed as biochemical. Particulars: wild type MGL 5 nM, 4MU-B 10 μM, 37° C.; read-out: MGL wild type inh IC50. An outline of the steps: as §1

Experiment [4] deals with CFA-induced paw radiant heat hypersensitivity. Briefly: CFA-induced paw radiant heat hypersensitivity. It is filed as in vivo. The settings on record: rat, 30 mg/kg p.o., 20% HPβCD, last time point 300 min; for inhibition in vivo at 30 mg/kg: po, 5 h, group mean values, read-out: Method 1: peak % reversal; for Method 2: peak % reversal: individual animal values. How it is done: Each rat was placed in a test chamber on a warm glass surface and allowed to acclimate for approximately 10 min. A radiant thermal stimulus (beam of light) was focused through the glass onto the plantar surface of each hind paw in turn. The thermal stimulus was automatically shut off by a photoelectric relay when the paw was moved or when the cut-off time was reached (20 sec for radiant heat at ˜5 amps). An initial (baseline) response latency to the thermal stimulus was recorded for each animal prior to the injection of complete Freund's adjuvant (CFA). Twenty-four hours following intraplantar CFA injection, the response latency of the animal to the thermal stimulus was re-evaluated and compared to the animal's baseline response time. […] Immediately following the post-CFA latency assessment, the indicated test compound or vehicle was administered orally. Post-compound treatment withdrawal latency was assessed at fixed time intervals, typically 30, 60, 120, 180, and 300 min. • The percent reversal (% R) of hypersensitivity was calculated in one of two different ways: 1) using group mean values or 2) using individual animal values. More specifically: • Method 1. For all compounds, the % R of hypersensitivity was calculated using the mean value for groups of animals at each time point according to the following formula: % reversal=[(group treatment response−group CFA response)/(group baseline response−group CFA response)]×100 • Results are given for the maximum % reversal observed for each compound at any time point tested. • Method 2. For some compounds, the % R of hypersensitivity was calculated separately for each animal according to the following formula: % reversal=[(individual treatment response−individual CFA response)/(individual baseline response−individual CFA response)]×100. • Results are given as a mean of the maximum % reversal values calculated for each individual animal.

For the next experiment, the target named is T3, mutant MGL (Homo sapiens, UniProt Q99685, L169S/L176S).
T3 construct: purified mutant MGL (mut-MGLL 11-313 L179S L186S)
T3 sequence (Q99685 1-303 L169S/L176S): T1 sequence (Q99685 1-303 L169S/L176S)
Briefly: MGL ThermoFluor assay - mutant. It is filed as binding. Particulars: qNMR-corrected compound concentration; read-out: MGL mutant ThermoFluor qKd. How it is done: The ThermoFluor (TF) assay is a 384-well plate-based binding assay that measures thermal stability of proteins^1,2. The experiments were carried out using instruments available from Johnson & Johnson Pharmaceutical Research & Development, LLC. TF dye used in all experiments was 1,8-ANS (Invitrogen: A-47). Final TF assay conditions used for MGL studies were 0.07 mg/ml of mutant MGL, 100 μM ANS, 200 mM NaCl, 0.001% Tween-20 in 50 mM PIPES (pH=7.0).
Screening compound plates contained 100% DMSO compound solutions at a single concentration. For follow-up concentration-response studies, compounds were arranged in a pre-dispensed plate (Greiner Bio-one: 781280), wherein compounds were serially diluted in 100% DMSO across 11 columns within a series. Columns 12 and 24 were used as DMSO reference and contained no compound. For both single and multiple compound concentration-response experiments, the compound aliquots (46 nL) were robotically predispensed directly into 384-well black assay plates (Abgene: TF-0384/k) using the Hummingbird liquid handler. Following compound dispension, protein and dye solutions were added to achieve the final assay volume of 3 μL. The assay solutions were overlayed with 1 μL of silicone oil (Fluka, type DC 200: 85411) to prevent evaporation.
Bar-coded assay plates were robotically loaded onto a thermostatically controlled PCR-type thermal block and then heated from 40 to 90° C. degrees at a ramp-rate of 1° C./min for all experiments. Fluorescence was measured by continuous illumination with UV light (Hamamatsu LC6), supplied via fiber optics and filtered through a band-pass filter (380-400 nm; >6 OD cutoff). Fluorescence emission of the entire 384-well plate was detected by measuring light intensity using a CCD camera (Sensys, Roper Scientific) filtered to detect 500±25 nm, resulting in simultaneous and independent readings of all 384 wells. A single image with 20-sec exposure time was collected at each temperature, and the sum of the pixel intensity in a given area of the assay plate was recorded vs temperature and fit to standard equations to yield the Tm^1. • 1. Pantoliano, M. W., Petrella, E. C., Kwasnoski, J. D., Lobanov, V. S., Myslik, J., Graf, E., Carver, T., Asel, E., Springer, B. A., Lane, P., and Salemme, F. R. (2001) J Biomol Screen 6, 429-40. • 2. Matulis, D., Kranz, J. K., Salemme, F. R., and Todd, M. J. (2005) Biochemistry 44, 5258-66.
The Kd values for certain compounds of Formula (I) were determined from a fit of the equation to the concentration-response plot of the fractional activity as a function of […]. For some experiments, quantitative NMR spectroscopy (qNMR) was used to measure concentration of the initial 100% DMSO compound solutions and, using the same fitting method, qKd values were determined.

Experiment [5] deals with murine model of acute inflammation. The settings on record: Comelli et al., Brit J Pharmacol, 2007; cited from earlier work.

Changes are numbered by the printed parent chain.

Consider `O=C(c1ccc(-c2cccc(C(F)(F)F)c2)cc1)N1CC(N[C@H]2CN(C(=O)c3ccccc3)CC2F)C1` (single isomer, unassigned) [Cpd 63], for which the IC50 in experiment [1] was 6.3 nM; in experiment [3], 66.6 nM. Also, in experiment [2], the “Rat Brain 2AG % VehCntrl (%) @1 μM” value came out at 696%. Moreover, in experiment [4], the inhibition in vivo at 30 mg/kg was -8.2%.
For the compound `O=C(c1ccc(-c2cccc(C(F)(F)F)c2)cc1)N1CC(N[C@H]2CCN(C(=O)c3ccccc3)C2)C1` [Cpd 16, (3S)-1-(Phenylcarbonyl)-N-(1-{[3′-(trifluoromethyl)biphenyl-4-yl]carbonyl}azetidin-3-yl)pyrrolidin-3-amine], the IC50 in experiment [1] was below 5 nM; in experiment [3], 16.7 nM. The “Rat Brain 2AG % VehCntrl (%) @1 μM” value in experiment [2] is recorded as 220%. The inhibition in vivo at 30 mg/kg in experiment [4] came to 78%. Further, the “Method 2: peak % reversal” value in experiment [4] amounted to 87.7%.
`Cc1c(C(=O)N2CC(N[C@H]3CCN(C(=O)c4ccccc4)C3)C2)sc2ccc(-c3ccc(C(F)(F)F)cc3)cc12` [Cpd 40, (3S)-N-[1-({3-Methyl-5-[4-(trifluoromethyl)phenyl]-1-benzothiophen-2-yl}carbonyl)azetidin-3-yl]-1-(phenylcarbonyl)pyrrolidin-3-amine]: the IC50 in experiment [1] worked out at 18.9 nM; in experiment [3], 16 nM. Also, in experiment [2], the “Rat Brain 2AG % VehCntrl (%) @1 μM” value is recorded as 1145%. Besides, the inhibition in vivo at 30 mg/kg in experiment [4] is 15.9%. The “Method 2: peak % reversal” value in experiment [4] was 17.3%.
Take `O=C(c1ccc2c(-c3cccc(C(F)(F)F)c3)c[nH]c2c1)N1CC(N[C@H]2CCN(C(=O)c3ccccc3)C2)C1` [Cpd 103, (3S)-1-(Phenylcarbonyl)-N-[1-({3-[3-(trifluoromethyl)phenyl]-1H-indol-6-yl}carbonyl)azetidin-3-yl]pyrrolidin-3-amine]: the “Rat Brain 2AG % VehCntrl (%) @1 μM” value in experiment [2] is reported as 332%. Moreover, the IC50 in experiment [3] worked out at 15 nM. Moreover, in experiment [4], the inhibition in vivo at 30 mg/kg worked out at 28%.
As to `O=C(c1ccc2c(-c3cccc(C(F)(F)F)c3)c[nH]c2c1)N1CC(N[C@H]2CCN(C(=O)c3nccs3)C2)C1` [Cpd 105, (3S)-1-(1,3-Thiazol-2-ylcarbonyl)-N-[1-({3-[3-(trifluoromethyl)phenyl]-1H-indol-6-yl}carbonyl)azetidin-3-yl]pyrrolidin-3-amine], the “Rat Brain 2AG % VehCntrl (%) @1 μM” value in experiment [2] turned out to be 812%. Moreover, in experiment [3], the IC50 is 18 nM. Besides, the inhibition in vivo at 30 mg/kg in experiment [4] was 37.2%.
For `O=C(c1ccc(-c2cccc(C(F)(F)F)c2)cc1)N1CC(N[C@H]2CCN(C(=O)c3cscn3)C2)C1` [Cpd 114, (3S)-1-(1,3-Thiazol-4-ylcarbonyl)-N-(1-{[3′-(trifluoromethyl)biphenyl-4-yl]carbonyl}azetidin-3-yl)pyrrolidin-3-amine], in that order: 311%, 16.7 nM and 25.1%.
As for `O=C(c1ccc2c(ccn2-c2ccc(F)cc2)c1)N1CC(N[C@H]2CCN(C(=O)c3nccs3)C2)C1` [Cpd 159, (3S)-N-(1-{[1-(4-Fluorophenyl)-1H-indol-5-yl]carbonyl}azetidin-3-yl)-1-(1,3-thiazol-2-ylcarbonyl)pyrrolidin-3-amine], the “Rat Brain 2AG % VehCntrl (%) @1 μM” value in experiment [2] is recorded as 476%. Further, in experiment [3], the IC50 was 6 nM. Besides, in experiment [4], the inhibition in vivo at 30 mg/kg turned out to be 56.5%.
For `Cn1cc(-c2cccc(C(F)(F)F)c2)c2ccc(C(=O)N3CC(N[C@H]4CCN(C(=O)c5nccs5)C4)C3)cc21` [Cpd 162, (3S)-N-[1-({1-Methyl-3-[3-(trifluoromethyl)phenyl]-1H-indol-6-yl}carbonyl)azetidin-3-yl]-1-(1,3-thiazol-2-ylcarbonyl)pyrrolidin-3-amine], in that order: 911%, 6.3 nM and 69.7%.
As to `O=C(c1nccs1)N1CC[C@H](NC2CN(C(=O)c3cccc4c3CCN4c3ccc(F)cc3)C2)C1` [Cpd 216, (3S)-N-(1-{[1-(4-Fluorophenyl)-2,3-dihydro-1H-indol-4-yl]carbonyl}azetidin-3-yl)-1-(1,3-thiazol-2-ylcarbonyl)pyrrolidin-3-amine], the “Rat Brain 2AG % VehCntrl (%) @1 μM” value in experiment [2] worked out at 260%. In addition, in experiment [3], the IC50 was determined as 94.5 nM. The Kd at mutant MGL came out at 462 nM.
For `Cn1cc(Cc2ccc(F)cc2)c2ccc(C(=O)N3CC(N[C@H]4CCN(C(=O)c5nccs5)C4)C3)cc21` [Cpd 221, (3S)-N-(1-{[3-(4-Fluorobenzyl)-1-methyl-1H-indol-6-yl]carbonyl}azetidin-3-yl)-1-(1,3-thiazol-2-ylcarbonyl)pyrrolidin-3-amine], in that order: 878%, below 5 nM and 88.5 nM.
As for `O=C(Nc1cccc(-c2ccccc2)c1)OC1CCCCC1` [URB602], the antinociceptive effect entry in experiment [5] was “showed an antinociceptive effect”.

The IC50 is the midpoint of a concentration-inhibition curve.

The record behind these values is patent US8748417B2, “Amino-pyrrolidine-azetidine diamides as monoacylglycerol lipase inhibitors” (Janssen Pharmaceutica, NV, priority 2010, dated 2014).
